{"source": "ChEMBL document CHEMBL6115046", "about": "“Synthesis and In Vitro Profiling of Psilocin Derivatives: Improved Stability and Synthetic Properties” (J Med Chem, 2025)", "key": {"[1]": {"assay": "Metabolic stability in human liver microsomes assessed as degradation at 1 uM measured upto 45 mins in presence of NADPH measured per mg protein by LC-MS/MS analysis", "format": "ADME, Microsome", "conditions": "0.75 h"}, "[2]": {"assay": "Chemical stability of the compound in 1M HCl assessed as half life measured for 24 hrs by LC-MS analysis", "format": "physicochemical"}, "[3]": {"assay": "Photolytic stability of the compound assessed as parent compound remaining incubated under 12900 lx light irradiation measured for 14 days by LC-MS analysis", "format": "physicochemical", "conditions": "time 14 day"}, "[4]": {"assay": "Stability of the compound in 0.1M NaOH assessed as parent compound remaining measured after 24 hrs by LC-MS analysis", "format": "physicochemical", "conditions": "read-out: Stability"}, "[5]": {"assay": "Photolytic stability of the compound assessed as half life under 12900 lx light irradiation measured for 14 days by LC-MS analysis", "format": "physicochemical", "conditions": "time 14 day"}, "[6]": {"assay": "Thermal stability of the compound assessed as parent compound remaining at 60 degreeC measured for 6 days by LC-MS analysis", "format": "physicochemical", "conditions": "time 6 day"}, "[7]": {"assay": "Stability of the compound in 0.30% H2O2 assessed as parent compound remaining measured after 24 hrs by LC-MS analysis", "format": "physicochemical", "conditions": "read-out: Stability"}, "[8]": {"assay": "Stability of the compound in 0.30% H2O2 assessed as half life measured after 24 hrs by LC-MS analysis", "format": "physicochemical"}, "[9]": {"assay": "Stability of the compound in 0.1M NaOH assessed as half life measured after 24 hrs by LC-MS analysis", "format": "physicochemical"}, "[10]": {"assay": "Thermal stability of compound assessed as half life at 60 degreeC measured for 6 days by LC-MS analysis", "format": "physicochemical", "conditions": "144 h; time 6 day"}, "[11]": {"assay": "Stability of the compound in 1M HCl assessed as parent compound remaining measured for 24 hrs by LC-MS analysis", "format": "physicochemical", "conditions": "buffer"}}}
{"compound": "CN(C)CCc1c[nH]c2cccc(OP(=O)(O)O)c12", "note": "[PSILOCYBIN]", "values": [{"measurement": "Drug degradation", "setting": "[1]", "value": "< 10", "unit": "µL/min"}]}
{"compound": "CC(C)COC(=O)Oc1cccc2[nH]cc(CCN(C)C)c12.O=CO", "values": [{"measurement": "Drug degradation", "setting": "[1]", "value": "> 200", "unit": "µL/min"}]}
{"compound": "CN(C)CCc1c[nH]c2cccc(OC(=O)OCc3ccccc3)c12.O=C(O)/C=C/C(=O)O.O=CO", "values": [{"measurement": "Drug degradation", "setting": "[1]", "value": "> 200", "unit": "µL/min"}]}
{"compound": "CN(C)CCc1c[nH]c2cccc(OB(O)O)c12.O=C(O)/C=C/C(=O)O", "values": [{"measurement": "Drug degradation", "setting": "[1]", "value": "> 200", "unit": "µL/min"}]}
{"compound": "COC(=O)Oc1cccc2[nH]cc(CCN(C)C)c12.O=C(O)/C=C/C(=O)O", "values": [{"measurement": "Drug degradation", "setting": "[1]", "value": "> 200", "unit": "µL/min"}]}
{"compound": "CN(C)CCc1c[nH]c2cccc(O)c12.OB(O)O", "values": [{"measurement": "half-life", "setting": "[2]; 1M HCl", "value": "> 167", "unit": "h"}, {"measurement": "remaining at 336 h", "setting": "[3]; read-out: Stability", "value": 0, "unit": "%"}, {"measurement": "remaining at 24 h", "setting": "[4]", "value": 0, "unit": "%"}, {"measurement": "half-life", "setting": "[5]", "value": "< 16.7", "unit": "h"}, {"measurement": "remaining at 144 h", "setting": "[6]; read-out: Stability", "value": 0, "unit": "%"}, {"measurement": "remaining at 24 h", "setting": "[7]", "value": 0, "unit": "%"}]}
{"compound": "CCCC(=O)Oc1cccc2[nH]cc(CCN(C)C)c12.O=C(O)/C=C/C(=O)O", "values": [{"measurement": "Drug degradation", "setting": "[1]", "value": "> 200", "unit": "µL/min"}]}
{"compound": "CN(C)CCc1c[nH]c2cccc(O)c12.O=C1O[C@H]([C@@H](O)CO)C(O)=C1O", "values": [{"measurement": "t1/2", "setting": "[8]", "value": "> 166.67", "unit": "h"}, {"measurement": "t1/2", "setting": "[2]; buffer, 24 h", "value": "> 166.67", "unit": "h"}, {"measurement": "Stability", "setting": "[3]; 336 h", "value": 39, "unit": "%"}, {"measurement": "t1/2", "setting": "[9]", "value": 16.67, "unit": "h"}, {"measurement": "Stability", "setting": "[6]; 144 h", "value": 42, "unit": "%"}, {"measurement": "t1/2", "setting": "[10]", "value": 150, "unit": "h"}, {"measurement": "Stability", "setting": "[11]", "value": 97, "unit": "%"}]}
{"compound": "CN(C)CCc1c[nH]c2cccc(OC(=O)N3CCCCC3)c12.O=C(O)/C=C/C(=O)O", "values": [{"measurement": "Drug degradation", "setting": "[1]", "value": "< 10", "unit": "µL/min"}]}
{"compound": "CN(C)CCc1c[nH]c2cccc(OCc3ccccc3)c12", "values": [{"measurement": "Drug degradation", "setting": "[1]", "value": 44, "unit": "µL/min"}]}
{"compound": "CCCCC(=O)Oc1cccc2[nH]cc(CCN(C)C)c12.O=C(O)/C=C/C(=O)O", "values": [{"measurement": "Drug degradation", "setting": "[1]", "value": "> 200", "unit": "µL/min"}]}
{"compound": "CN(C)CCc1c[nH]c2cccc(OS(=O)(=O)O)c12", "values": [{"measurement": "Drug degradation", "setting": "[1]", "value": "> 200", "unit": "µL/min"}]}
